Data set [1] has as its target T1, Ba/F3 cell-derived tumors with the EML4-ALK L1198F/G1202R fusion (Homo sapiens, UniProt Q9UM73, G1202R/L1198F).
T1 sequence (Q9UM73 with tags, fused parts or gaps L1198F/G1202R): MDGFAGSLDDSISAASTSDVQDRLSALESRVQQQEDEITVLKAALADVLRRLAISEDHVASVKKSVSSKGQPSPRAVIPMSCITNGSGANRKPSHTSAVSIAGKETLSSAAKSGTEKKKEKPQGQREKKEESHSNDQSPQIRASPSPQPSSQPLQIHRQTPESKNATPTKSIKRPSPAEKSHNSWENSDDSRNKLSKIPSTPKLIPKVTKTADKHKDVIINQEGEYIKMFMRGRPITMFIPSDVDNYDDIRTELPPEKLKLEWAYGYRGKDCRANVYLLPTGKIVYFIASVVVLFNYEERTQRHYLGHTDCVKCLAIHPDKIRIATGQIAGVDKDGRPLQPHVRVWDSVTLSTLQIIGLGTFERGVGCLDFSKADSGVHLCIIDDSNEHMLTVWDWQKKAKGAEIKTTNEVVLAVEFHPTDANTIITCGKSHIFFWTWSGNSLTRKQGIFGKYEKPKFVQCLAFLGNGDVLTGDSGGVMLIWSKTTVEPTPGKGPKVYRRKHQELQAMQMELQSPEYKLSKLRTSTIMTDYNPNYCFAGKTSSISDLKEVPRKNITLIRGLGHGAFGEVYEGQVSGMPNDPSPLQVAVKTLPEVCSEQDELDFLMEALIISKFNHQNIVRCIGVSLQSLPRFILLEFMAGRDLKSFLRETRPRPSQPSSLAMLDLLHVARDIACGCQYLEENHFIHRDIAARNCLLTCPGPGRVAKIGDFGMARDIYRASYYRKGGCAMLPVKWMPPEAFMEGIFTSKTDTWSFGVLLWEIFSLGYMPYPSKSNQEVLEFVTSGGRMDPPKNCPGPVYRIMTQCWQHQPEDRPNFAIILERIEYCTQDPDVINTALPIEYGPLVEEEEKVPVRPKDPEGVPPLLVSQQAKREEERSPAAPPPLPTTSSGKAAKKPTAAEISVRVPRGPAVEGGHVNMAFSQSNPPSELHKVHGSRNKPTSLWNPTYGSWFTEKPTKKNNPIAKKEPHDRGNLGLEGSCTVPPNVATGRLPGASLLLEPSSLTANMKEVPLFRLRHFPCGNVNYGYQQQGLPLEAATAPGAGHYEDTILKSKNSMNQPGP

The target in data set [2] is Ba/F3 cell-derived tumors with the EML4-ALK L1196M/G1202R fusion (Homo sapiens, UniProt Q9UM73, G1202R/L1196M).
Another data set concerns the target T2, ALK (delete G1202) (Homo sapiens, UniProt Q9UM73, DEL1202-1202).
T2 construct: purchased Reaction Biology Corporation (contract assay)
The experiment in a line: Biochemical kinase assay (Reaction Biology). The conditions noted are these: 10 μM ATP.

In the next data set the target is T3, ALK (L1152R) (Homo sapiens, UniProt Q9UM73, L1152R).
T3 construct: purchased Reaction Biology Corporation (contract assay)
The experiment in a line: Biochemical kinase assay (Reaction Biology). The conditions noted are these: 10 μM ATP.

A further data set concerns the target T4, ALK (R1275Q) (Homo sapiens, UniProt Q9UM73, R1275Q).
T4 construct: purchased Reaction Biology Corporation (contract assay)
The experiment in a line: Biochemical kinase assay (Reaction Biology). The conditions noted are these: 10 μM ATP.

The target in the next data set is T5, ALK (S1206R) (Homo sapiens, UniProt Q9UM73, S1206R).
T5 construct: purchased Reaction Biology Corporation (contract assay)
The experiment in a line: Biochemical kinase assay (Reaction Biology). The conditions noted are these: 10 μM ATP.

Another data set deals with T6, ALK (V1180L) (Homo sapiens, UniProt Q9UM73, V1180L).
T6 construct: purchased Reaction Biology Corporation (assay run there)
The experiment in a line: Biochemical kinase assay (Reaction Biology). The conditions noted are these: 10 μM ATP.

Where [3] appears, read: 2, 5, 10 mg/kg BID, after 7 days of treatment.

The structures appear in SMILES notation. Like-named read-outs stand apart in the source and are kept apart here.

The source of these data is patent US11142533B2, “Macrocycles for use in treating disease” (TURNING POINT THERAPEUTICS, INC., priority 2019, dated 2021).

As to `CC1(C)COc2ccc(F)cc2CN2c3nc4c(cnn4cc3OC[C@H]2C(F)F)C(=O)N1` [Compound 1, (4S)-4-(Difluoromethyl)-8-fluoro-13,13-dimethyl-3,4,13,14-tetrahydro-6H-18,1-(metheno)[1,4]oxazino[3,4-i]pyrazolo[4,3-f][1,4,8,10]benzoxatriazacyclotridecin-15(12H)-one], the body weight result in data set [1] (setting [3]) and in data set [2] (setting [3]) was “no body weight loss” throughout. Also, the “Tumor growth inhibition (TGI)” value in data set [1] (all three dose levels of 2, 5, and 10 mg/kg BID, after 7 days of treatment) was 200%; in data set [2] (0.6 mg/kg BID, after 7 days of treatment) it was 19%; in data set [2] (2 mg/kg BID, after 7 days of treatment), 44%; in data set [2] (5 mg/kg BID, after 7 days of treatment), 83%; in data set [2] (10 mg/kg BID, after 7 days of treatment), 200%. Further, the “tumor response at the end of study” value in data set [1] (all three groups (2, 5, 10 mg/kg BID), day 14 post inoculation) is “complete regression”. In addition, the “tumor growth compared with vehicle treated group” value in data set [2] (Compound 1 0.6 mg/kg BID or lorlatinib 5 mg/kg BID, day 14, p>0.05) is on record as “not significantly different”.
In general, IC50 refers to the concentration that gives 50% inhibition. Read a high IC50 as weaker potency in that assay. Take `O=C1NCC2(CC2)COc2ccc(F)cc2CN2c3nc4c1cnn4cc3OC[C@H]2C(F)F` [Compound 2, (16′S)-16′-(Difluoromethyl)-12′-fluoro-4′H,5′H,6′H,8′H,14′H,16′H,17′H-spiro[cyclopropane-1,7′-[1,19](metheno)[1,4]oxazino[3,4-j]pyrazolo[4,3-g][1,5,9,11]benzoxatriazacyclotetradecin]-4′-one]: the IC50 is 0.45 nM against ALK (delete G1202); 0.83 nM against ALK (L1152R); 0.72 nM against ALK (R1275Q); 0.31 nM at ALK (S1206R); 0.51 nM on ALK (V1180L).
